# What was measured:
# Assay in all cases: KiNativ kinome profiling in PANC-1 lysate
# Format in all cases: binding
# ATR = target: T1, ATR (Homo sapiens, UniProt Q13535); conditions: ATP
# T1 construct: endogenous in cells; host or cells: PANC-1 cell lysate
# Description: (§1) To assess target engagement and selectivity, we opted to conduct a kinome screen (KiNativ) in PANC-1 cell lysates. This chemical proteomics (chemoproteomics) methodology allows for the evaluation of small-molecule binding to protein kinases in native systems such as cell lysates. KiNativ utilizes a soluble chemical probe comprising ATP linked to biotin through an acyl-phosphate bond. The probe covalently modifies conserved lysine residues found in the ATP binding site of essentially all protein kinases (Figure 2A). To profile a kinase inhibitor, cell lysates are treated with a vehicle control or inhibitor prior to addition of the desthiobiotin ATP probe. The ATP probe occupies the ATP binding site in the kinase, which enables the conserved lysines to be biotinylated. […] The cell lysates are digested with a protease (trypsin), biotinylated peptides are affinity-enriched on streptavidin beads, and the labeled peptides are analyzed by liquid chromatography–tandem MS (Figure 2B). If an inhibitor binds to a kinase, it competes with the ATP, thus resulting in a loss of that kinase-associated peptide signal, allowing for the quantitative measurement of inhibitor binding. Unlike recombinant enzyme assays, KiNativ IC50 values are a direct measure of active site binding instead of enzymatic activity.
# (§2) Kinome profiling quantified the activity of 51-106 against >300 kinases in the PANC-1 cells. The results summarized in Figure 2C are the average of duplicate control and duplicate treated samples with 5 μM of 51-106 or DMSO.
# (§3) KiNativ assay with 51-106.
# (§4) ATP Loop: ATP binding loop
# (§5) Activation Loop: Activation loop
# (§6) ATP: ATP site in non-canonical kinase (e.g. lipid kinase)
# (§7) Protein Kinase Domain: Other lysine within kinase domain, possibly not in ATP binding site
# (§8) Other: Labeling of residue outside of the protein kinase domain, possibly not in ATP binding site
# (§9) No change. NB = No Binding (≤ 0)
# (§10) >100% increase in MS signal (>2 fold increase)
# (§11) Data points inhibited […] & not considered significant are left uncolored
# (§12) Note: This KiNativ dataset is the result of an analysis of duplicate treated samples and control samples.
# (§13) The % changes in MS signals being reported are statistically significant (Student T -test score < 0.04)
# BRAF, RAF1 = conditions: 5 µM; Activation Loop; IGDFGLATVKSR
# Description: as §1, §2, §3, §4, §5, §6, §7, §8, §9, §10, §11, §12, §13
# CHK1 = target: T2, CHK1 (Homo sapiens, UniProt O14757); conditions: Lys2
# T2 construct: endogenous in cells; host or cells: PANC-1 cell lysate
# Description: as §1, §2, §3, §4, §5, §6, §7, §8, §9, §10, §11, §12, §13
# DGKH = target: T3, DGKH (Homo sapiens, UniProt Q86XP1); conditions: ATP
# T3 construct: endogenous in cells; host or cells: PANC-1 lysate
# Description: as §1, §2, §3, §4, §5, §6, §7, §8, §9, §10, §11, §12, §13
# DNAPK = target: T4, DNAPK (Homo sapiens, UniProt P78527); conditions: ATP
# T4 construct: endogenous in cells; host or cells: PANC-1 lysate
# Description: as §1, §2, §3, §4, §5, §6, §7, §8, §9, §10, §11, §12, §13
# FRAP = target: T5, FRAP (Homo sapiens, UniProt P42345); conditions: ATP
# T5 construct: endogenous in cells; host or cells: PANC-1 lysate
# Description: as §1, §2, §3, §4, §5, §6, §7, §8, §9, §10, §11, §12, §13
# FRK = target: T6, FRK (Homo sapiens, UniProt P42685); conditions: ATP Loop
# T6 construct: endogenous in cells; host or cells: PANC-1 lysate
# Description: as §1, §2, §3, §4, §5, §6, §7, §8, §9, §10, §11, §12, §13
# HER3/ErbB3 = target: T7, HER3/ErbB3 (Homo sapiens, UniProt P21860)
# T7 construct: we opted to conduct a kinome screen (KiNativ) in PANC-1 cell lysates; endogenous in cells; host or cells: PANC-1 cell lysate
# Description: as §1, §2, §3, §4, §5, §6, §7, §8, §9, §10, §11, §12, §13
# IKKa = target: T8, IKKa (Homo sapiens, UniProt O15111); conditions: Lys2
# T8 construct: we opted to conduct a kinome screen (KiNativ) in PANC-1 cell lysates; endogenous in cells; host or cells: PANC-1 cell lysate
# Description: as §1, §2, §3, §4, §5, §6, §7, §8, §9, §10, §11, §12, §13
# IRE1 = target: T9, IRE1 (Homo sapiens, UniProt O75460)
# T9 construct: we opted to conduct a kinome screen (KiNativ) in PANC-1 cell lysates; endogenous in cells; host or cells: PANC-1 cell lysate
# Description: as §1, §2, §3, §4, §5, §6, §7, §8, §9, §10, §11, §12, §13
# LKB1 = target: T10, LKB1 (Homo sapiens, UniProt Q15831); conditions: Lys2
# T10 construct: we opted to conduct a kinome screen (KiNativ) in PANC-1 cell lysates; endogenous in cells; host or cells: PANC-1 cell lysate
# Description: as §1, §2, §3, §4, §5, §6, §7, §8, §9, §10, §11, §12, §13
# MAP4K3 = target: T11, MAP4K3 (Homo sapiens, UniProt Q8IVH8)
# T11 construct: endogenous in cells; host or cells: PANC-1 cell lysate
# Description: as §1, §2, §3, §4, §5, §6, §7, §8, §9, §10, §11, §12, §13
# MARK2, MARK3 = conditions: 5 µM; Lys2; DLKAENLLLDADMNIK
# Description: as §1, §2, §3, §4, §5, §6, §7, §8, §9, §10, §11, §12, §13
# MST1, MST2 = conditions: 5 µM
# Description: as §1, §2, §3, §4, §5, §6, §7, §8, §9, §10, §11, §12, §13
# NDR1, NDR2 = conditions: 5 µM; ATP Loop; LSDFGLCTGLKK
# Description: as §1, §2, §3, §4, §5, §6, §7, §8, §9, §10, §11, §12, §13
# PCTAIRE1 = target: T12, PCTAIRE1 (Homo sapiens, UniProt Q00536); conditions: Lys1
# T12 construct: endogenous in cells; host or cells: PANC-1 cell lysate
# Description: as §1, §2, §3, §4, §5, §6, §7, §8, §9, §10, §11, §12, §13
# PIP5K3 = target: T13, PIP5K3 (Homo sapiens, UniProt Q9Y2I7); conditions: ATP
# T13 construct: endogenous in cells; host or cells: PANC-1 cell lysate
# Description: as §1, §2, §3, §4, §5, §6, §7, §8, §9, §10, §11, §12, §13
# PKCd = target: T14, PKCd (Homo sapiens, UniProt Q05655)
# T14 construct: endogenous in cells; host or cells: PANC-1 cell lysate
# Description: as §1, §2, §3, §4, §5, §6, §7, §8, §9, §10, §11, §12, §13
# PKN2 = target: T15, PKN2 (Homo sapiens, UniProt Q16513); conditions: Lys2
# T15 construct: endogenous in cells; host or cells: PANC-1 cell lysate
# Description: as §1, §2, §3, §4, §5, §6, §7, §8, §9, §10, §11, §12, §13
# PLK1 = target: T16, PLK1 (Homo sapiens, UniProt P53350)
# T16 construct: endogenous in cells; host or cells: PANC-1 cell lysate
# Description: as §1, §2, §3, §4, §5, §6, §7, §8, §9, §10, §11, §12, §13
# RON = target: T17, RON (Homo sapiens, UniProt Q04912); conditions: Lys1
# T17 construct: endogenous in cells; host or cells: PANC-1 cell lysate
# Description: as §1, §2, §3, §4, §5, §6, §7, §8, §9, §10, §11, §12, §13
# STLK6 = target: T18, STLK6 (Homo sapiens, UniProt Q9C0K7); conditions: Lys1
# T18 construct: endogenous in cells; host or cells: PANC-1 cell lysate
# Description: as §1, §2, §3, §4, §5, §6, §7, §8, §9, §10, §11, §12, §13
# TGFbR2 = target: T19, TGFbR2 (Homo sapiens, UniProt P37173); conditions: Lys2
# T19 construct: endogenous in cells; host or cells: PANC-1 cell lysate
# Description: as §1, §2, §3, §4, §5, §6, §7, §8, §9, §10, §11, §12, §13
# TLK2 = target: T20, TLK2 (Homo sapiens, UniProt Q86UE8)
# T20 construct: endogenous in cells; host or cells: PANC-1 cell lysate
# Description: as §1, §2, §3, §4, §5, §6, §7, §8, §9, §10, §11, §12, §13
# Wnk1, Wnk2, Wnk3 = conditions: 5 µM; Lys2; DLKCDNIFITGPTGSVK
# Description: as §1, §2, §3, §4, §5, §6, §7, §8, §9, §10, §11, §12, §13
# ZC2/TNIK = target: T21, ZC2/TNIK (Homo sapiens, UniProt Q9UKE5); conditions: Lys1
# T21 construct: endogenous in cells; host or cells: PANC-1 cell lysate
# Description: as §1, §2, §3, §4, §5, §6, §7, §8, §9, §10, §11, §12, §13
# T4 sequence (P78527 whole entry): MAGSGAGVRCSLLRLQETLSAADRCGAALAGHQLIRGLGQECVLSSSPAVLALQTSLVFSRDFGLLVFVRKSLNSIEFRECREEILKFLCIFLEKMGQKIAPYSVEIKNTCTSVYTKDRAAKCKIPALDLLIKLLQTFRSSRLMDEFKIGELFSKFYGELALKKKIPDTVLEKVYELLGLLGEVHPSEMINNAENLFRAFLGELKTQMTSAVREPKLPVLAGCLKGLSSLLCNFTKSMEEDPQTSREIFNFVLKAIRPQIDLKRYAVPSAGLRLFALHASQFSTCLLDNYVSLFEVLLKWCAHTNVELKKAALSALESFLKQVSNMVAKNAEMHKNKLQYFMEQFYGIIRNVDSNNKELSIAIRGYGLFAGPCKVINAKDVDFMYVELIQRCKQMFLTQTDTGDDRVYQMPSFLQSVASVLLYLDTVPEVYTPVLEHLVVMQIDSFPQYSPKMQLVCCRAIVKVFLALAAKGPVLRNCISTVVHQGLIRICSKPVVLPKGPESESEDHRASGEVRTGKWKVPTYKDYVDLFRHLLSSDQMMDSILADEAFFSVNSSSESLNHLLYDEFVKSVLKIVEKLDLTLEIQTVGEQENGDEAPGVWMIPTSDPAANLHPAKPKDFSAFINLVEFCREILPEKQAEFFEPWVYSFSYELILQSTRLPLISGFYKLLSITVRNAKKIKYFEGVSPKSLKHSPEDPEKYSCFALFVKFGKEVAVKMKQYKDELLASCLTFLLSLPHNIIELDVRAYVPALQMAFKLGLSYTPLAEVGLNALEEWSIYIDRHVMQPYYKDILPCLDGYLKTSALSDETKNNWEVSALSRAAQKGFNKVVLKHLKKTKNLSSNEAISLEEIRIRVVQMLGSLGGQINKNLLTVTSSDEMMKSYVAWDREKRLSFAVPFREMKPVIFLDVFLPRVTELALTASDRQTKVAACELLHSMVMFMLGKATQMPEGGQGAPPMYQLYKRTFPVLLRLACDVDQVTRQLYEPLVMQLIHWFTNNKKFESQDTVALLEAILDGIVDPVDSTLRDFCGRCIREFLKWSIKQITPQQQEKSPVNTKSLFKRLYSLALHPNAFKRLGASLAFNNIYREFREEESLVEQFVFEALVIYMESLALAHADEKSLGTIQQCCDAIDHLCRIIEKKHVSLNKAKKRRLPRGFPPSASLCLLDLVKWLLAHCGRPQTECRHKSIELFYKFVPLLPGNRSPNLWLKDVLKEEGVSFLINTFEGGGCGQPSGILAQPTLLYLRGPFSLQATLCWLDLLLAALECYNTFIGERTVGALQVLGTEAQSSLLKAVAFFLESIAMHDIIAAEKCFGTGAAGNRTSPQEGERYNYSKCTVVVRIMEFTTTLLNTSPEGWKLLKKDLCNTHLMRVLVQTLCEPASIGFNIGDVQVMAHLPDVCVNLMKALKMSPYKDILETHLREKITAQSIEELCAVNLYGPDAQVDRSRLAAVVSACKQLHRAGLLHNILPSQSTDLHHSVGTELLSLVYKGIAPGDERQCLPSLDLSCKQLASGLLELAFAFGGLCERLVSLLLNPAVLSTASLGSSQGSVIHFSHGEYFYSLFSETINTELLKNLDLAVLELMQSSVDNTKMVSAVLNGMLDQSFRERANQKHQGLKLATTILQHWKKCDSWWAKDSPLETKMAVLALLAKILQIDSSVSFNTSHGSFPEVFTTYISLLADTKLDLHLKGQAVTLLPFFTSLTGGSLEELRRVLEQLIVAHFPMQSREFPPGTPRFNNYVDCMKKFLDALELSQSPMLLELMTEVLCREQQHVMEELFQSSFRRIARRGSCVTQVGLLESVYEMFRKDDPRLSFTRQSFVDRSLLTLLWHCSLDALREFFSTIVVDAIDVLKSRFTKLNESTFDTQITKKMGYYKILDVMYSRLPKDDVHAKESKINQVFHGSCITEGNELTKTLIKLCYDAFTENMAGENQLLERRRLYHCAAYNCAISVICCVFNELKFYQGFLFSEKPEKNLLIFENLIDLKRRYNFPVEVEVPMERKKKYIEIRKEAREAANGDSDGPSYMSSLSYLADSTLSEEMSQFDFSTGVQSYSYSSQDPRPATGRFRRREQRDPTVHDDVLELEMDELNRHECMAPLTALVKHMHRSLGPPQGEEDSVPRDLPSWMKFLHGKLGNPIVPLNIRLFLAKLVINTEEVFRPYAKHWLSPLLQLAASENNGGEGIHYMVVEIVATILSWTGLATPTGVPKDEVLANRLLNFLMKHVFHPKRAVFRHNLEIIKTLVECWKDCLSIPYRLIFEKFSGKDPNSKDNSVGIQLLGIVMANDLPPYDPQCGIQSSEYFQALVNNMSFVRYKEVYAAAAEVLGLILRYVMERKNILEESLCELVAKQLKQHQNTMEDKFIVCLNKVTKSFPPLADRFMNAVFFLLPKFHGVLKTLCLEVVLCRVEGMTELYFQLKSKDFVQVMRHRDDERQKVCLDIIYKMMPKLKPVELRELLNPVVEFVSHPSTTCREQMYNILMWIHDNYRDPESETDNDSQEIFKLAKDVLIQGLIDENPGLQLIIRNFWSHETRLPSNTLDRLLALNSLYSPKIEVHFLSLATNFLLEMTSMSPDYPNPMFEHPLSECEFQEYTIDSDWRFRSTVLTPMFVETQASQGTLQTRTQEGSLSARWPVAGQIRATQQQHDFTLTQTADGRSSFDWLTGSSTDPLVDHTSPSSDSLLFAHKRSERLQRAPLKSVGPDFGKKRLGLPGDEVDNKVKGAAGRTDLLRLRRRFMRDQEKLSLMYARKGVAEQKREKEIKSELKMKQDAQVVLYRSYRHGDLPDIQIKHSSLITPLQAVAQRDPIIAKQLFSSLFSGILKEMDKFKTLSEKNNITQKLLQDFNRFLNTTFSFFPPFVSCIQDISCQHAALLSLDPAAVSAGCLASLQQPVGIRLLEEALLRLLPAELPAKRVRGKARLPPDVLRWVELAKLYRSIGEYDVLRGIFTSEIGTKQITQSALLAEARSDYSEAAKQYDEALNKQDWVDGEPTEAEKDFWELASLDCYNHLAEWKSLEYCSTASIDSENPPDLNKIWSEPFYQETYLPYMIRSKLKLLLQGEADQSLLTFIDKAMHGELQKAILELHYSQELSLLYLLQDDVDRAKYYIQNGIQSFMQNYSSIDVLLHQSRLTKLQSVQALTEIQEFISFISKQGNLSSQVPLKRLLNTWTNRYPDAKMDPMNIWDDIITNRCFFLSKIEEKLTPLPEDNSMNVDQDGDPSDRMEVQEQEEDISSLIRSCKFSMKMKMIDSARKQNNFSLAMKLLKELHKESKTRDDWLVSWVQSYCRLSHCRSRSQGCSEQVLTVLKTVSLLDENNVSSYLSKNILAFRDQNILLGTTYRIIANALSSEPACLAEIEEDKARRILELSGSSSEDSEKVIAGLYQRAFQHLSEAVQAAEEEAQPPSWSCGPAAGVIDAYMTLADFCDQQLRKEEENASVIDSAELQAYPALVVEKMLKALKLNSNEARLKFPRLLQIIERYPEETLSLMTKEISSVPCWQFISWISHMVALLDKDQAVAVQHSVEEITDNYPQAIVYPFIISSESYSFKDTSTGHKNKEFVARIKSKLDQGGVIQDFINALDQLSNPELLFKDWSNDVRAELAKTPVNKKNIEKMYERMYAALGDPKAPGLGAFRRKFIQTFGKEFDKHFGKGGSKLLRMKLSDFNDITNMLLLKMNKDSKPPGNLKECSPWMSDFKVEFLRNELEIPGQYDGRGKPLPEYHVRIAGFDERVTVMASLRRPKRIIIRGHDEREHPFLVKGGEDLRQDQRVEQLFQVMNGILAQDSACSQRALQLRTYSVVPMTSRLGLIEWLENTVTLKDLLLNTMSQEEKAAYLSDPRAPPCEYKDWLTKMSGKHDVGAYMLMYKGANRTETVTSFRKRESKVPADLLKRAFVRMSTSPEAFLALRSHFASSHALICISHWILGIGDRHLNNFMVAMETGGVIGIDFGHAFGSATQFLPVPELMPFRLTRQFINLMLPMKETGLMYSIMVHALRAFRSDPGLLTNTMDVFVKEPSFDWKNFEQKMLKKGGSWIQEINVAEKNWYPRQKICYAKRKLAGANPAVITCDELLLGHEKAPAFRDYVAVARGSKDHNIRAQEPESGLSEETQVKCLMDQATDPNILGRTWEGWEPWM
# T11 sequence (Q8IVH8 whole entry): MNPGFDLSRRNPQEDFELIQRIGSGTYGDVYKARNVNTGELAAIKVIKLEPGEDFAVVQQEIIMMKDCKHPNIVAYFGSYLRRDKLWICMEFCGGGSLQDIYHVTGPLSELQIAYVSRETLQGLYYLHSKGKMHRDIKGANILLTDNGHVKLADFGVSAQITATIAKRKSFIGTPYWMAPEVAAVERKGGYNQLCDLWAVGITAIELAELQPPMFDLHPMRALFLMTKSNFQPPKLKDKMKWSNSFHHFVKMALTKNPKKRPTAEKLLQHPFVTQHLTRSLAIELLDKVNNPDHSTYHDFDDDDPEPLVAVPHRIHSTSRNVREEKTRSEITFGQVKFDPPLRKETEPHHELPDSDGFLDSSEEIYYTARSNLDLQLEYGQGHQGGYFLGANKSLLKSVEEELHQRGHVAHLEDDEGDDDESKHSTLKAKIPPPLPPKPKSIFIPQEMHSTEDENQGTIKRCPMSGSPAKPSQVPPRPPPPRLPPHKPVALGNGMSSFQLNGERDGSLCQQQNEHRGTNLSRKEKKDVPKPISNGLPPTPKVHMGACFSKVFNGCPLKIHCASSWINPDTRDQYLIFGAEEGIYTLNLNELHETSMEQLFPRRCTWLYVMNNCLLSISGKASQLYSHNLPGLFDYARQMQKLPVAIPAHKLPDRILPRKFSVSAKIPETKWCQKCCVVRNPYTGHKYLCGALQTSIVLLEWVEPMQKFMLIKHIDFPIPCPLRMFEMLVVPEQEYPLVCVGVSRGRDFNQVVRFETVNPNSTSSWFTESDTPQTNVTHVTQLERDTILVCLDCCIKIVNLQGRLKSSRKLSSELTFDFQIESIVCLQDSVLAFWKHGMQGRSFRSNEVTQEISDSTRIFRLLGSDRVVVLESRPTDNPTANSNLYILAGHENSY
structure (smiles),measurement,setting,value
"Cn1cc(-c2cnc3ccc(NC(=O)Nc4ccc(F)c(C(F)(F)F)c4)cc3n2)cn1 [51-106, 1-(4-Fluoro-3-(trifluoromethyl)phenyl)-3-(3-(1-methyl-1H-pyrazol-4-yl)quinoxalin-6-yl)urea]",inhibition at 5 µM,ATR,2.2%
same,% Inhibition,"BRAF, RAF1",12.7%
same,inhibition at 5 µM,CHK1,≤ 0%
same,inhibition at 5 µM,DGKH,≤ 0%
same,% Inhibition,"DNAPK; 5 µM, EHPFLVKGGEDLR",NB (NB = No Binding (≤ 0))
same,inhibition at 5 µM,DNAPK; […],≤ 0%
same,inhibition at 5 µM,FRAP,≤ 0%
same,inhibition at 5 µM,FRK,≤ 0%
same,inhibition at 5 µM,"HER3/ErbB3; ATP Loop, SPSQVQVADFGVADLLPPDDKQLLYSEAKTPIK",2%
same,inhibition at 5 µM,"HER3/ErbB3; Lys1, GVWIPEGESIKIPVCIKVIEDK",≤ 0%
same,inhibition at 5 µM,IKKa,≤ 0%
same,inhibition at 5 µM,"IRE1; Lys1, GMFDNRDVAVKR",8.9%
same,inhibition at 5 µM,"IRE1; Lys2, DLKPHNILISMPNAHGK",≤ 0%
same,inhibition at 5 µM,LKB1,≤ 0%
same,inhibition at 5 µM,"MAP4K3; Lys1, NVNTGELAAIKVIK",4.7%
same,inhibition at 5 µM,"MAP4K3; Lys2, DIKGANILLTDNGHVK",≤ 0%
same,% Inhibition,"MARK2, MARK3",11.3%
same,% Inhibition,"MST1, MST2; ATP Loop, LADFGVAGQLTDTMAKR",2.7%
same,% Inhibition,"MST1, MST2; Lys2, DIKAGNILLNTEGHAK",NB (NB = No Binding (≤ 0))
same,% Inhibition,"NDR1, NDR2",NB (NB = No Binding (≤ 0))
same,inhibition at 5 µM,PCTAIRE1,≤ 0%
same,inhibition at 5 µM,PIP5K3,≤ 0%
same,inhibition at 5 µM,"PKCd; Lys2, DLKLDNVLLDR",0.4%
same,inhibition at 5 µM,"PKCd; Other, KPTMYPEWK",≤ 0%
same,inhibition at 5 µM,PKN2,3.7%
same,inhibition at 5 µM,"PLK1; Lys1, CFEISDADTKEVFAGKIVPK",≤ 0%
same,inhibition at 5 µM,"PLK1; Lys2, DLKLGNLFLNEDLEVK",10.9%
same,inhibition at 5 µM,RON,≤ 0%
same,inhibition at 5 µM,STLK6,5.8%
same,inhibition at 5 µM,TGFbR2,8.9%
same,inhibition at 5 µM,"TLK2; Lys1, YVAVKIHQLNK",1.2%
same,inhibition at 5 µM,"TLK2; Lys2, YLNEIKPPIIHYDLKPGNILLVNGTACGEIK",1.7%
same,% Inhibition,"Wnk1, Wnk2, Wnk3",10.6%
same,inhibition at 5 µM,ZC2/TNIK,11.2%
